“And” between values parts separate entries of the source, which are not always exact repeats. Identical values can stand only once. Like-named read-outs stand apart in the source and are kept apart here.
Tested on: PK1 neuroblastoma cells exposed to TPrP
Test: cells
Format: cell-based
Conditions: read-out: TPrP EC50

Row | SMILES | EC50 (PK-1, 96 h) [nM] | EC50
1 | CC(=O)c1cccc(Nc2nnc(Cc3ccncc3)c3ccccc23)c1 [SR005] | 15 | 20 nM and 25 nM
2 | c1ccc2c(c1)CCC2Nc1nnc(Cc2ccncc2)c2ccccc12 (centres unmarked) [SR-27884] | 500 | 
3 | c1ccc2c(c1)CC(Nc1nnc(Cc3ccncc3)c3ccccc13)C2 [SR-27885] | 200 | 
4 | COc1ccc(CNc2nnc(Cc3ccncc3)c3ccccc23)cc1OC [SR-27886] | 150 | 
5 | c1ccc2[nH]c(CNc3nnc(Cc4ccncc4)c4ccccc34)nc2c1 [SR-27887] | 220 | 
6 | c1ccc2oc(CNc3nnc(Cc4ccncc4)c4ccccc34)nc2c1 [SR-27888] | 45 | 
7 | c1ccc2c(c1)CC(Nc1nnc(Cc3ccncc3)c3ccccc13)CO2 (centres unmarked) [SR-27889] | 285 | 
8 | c1ccc2c(c1)CC(CNc1nnc(Cc3ccncc3)c3ccccc13)CO2 (centres unmarked) [SR-27890] | 165 | 
9 | c1ccc(OCCNc2nnc(Cc3ccncc3)c3ccccc23)cc1 [SR-27892] | 500 | 
10 | CC(O)c1cccc(Nc2nnc(Cc3ccncc3)c3ccccc23)c1 (centres unmarked) [SR-29684] | 2 | 
11 | c1ccc2c(NCC3CCCO3)nnc(Cc3ccncc3)c2c1 (centres unmarked) [SR-30004] | 150 | 
12 | c1coc(CNc2nnc(Cc3ccncc3)c3ccccc23)c1 [SR-30005] | 140 | 
13 | c1ccc2[nH]c(CNc3nnc(Cc4ccncc4)c4ccccc34)cc2c1 [SR-30006] | 50 | 
14 | c1ccc2c(NCC3CCCCO3)nnc(Cc3ccncc3)c2c1 (centres unmarked) [SR-30007] | 60 | 
15 | c1ccc2c(NCC3CCOCC3)nnc(Cc3ccncc3)c2c1 [SR-30008] | 15 | 
16 | c1ccc2oc(Nc3nnc(Cc4ccncc4)c4ccccc34)nc2c1 [SR-30010] | 2 | 
17 | c1ccc2oc(CNc3nnc(Cc4ccncc4)c4ccccc34)cc2c1 [SR-30011] | 2 | 
18 | CC1(c2cccc(Nc3nnc(Cc4ccncc4)c4ccccc34)c2)OCCO1 [SR-30012] | 2 | 
19 | C/C(=N\O)c1cccc(Nc2nnc(Cc3ccncc3)c3ccccc23)c1 [SR-30013] | 2 | 
20 | CO/N=C(\C)c1cccc(Nc2nnc(Cc3ccncc3)c3ccccc23)c1 [SR-30014] | 2 | 
21 | CC(=C(F)F)c1cccc(Nc2nnc(Cc3ccncc3)c3ccccc23)c1 [SR-31144] | > 400 | 
22 | CC(=O)c1cccc(Nc2nnc(Cc3cc(C)nc(C)c3)c3ccccc23)c1 [SR-32064] | > 400 | 
23 | Cc1cc(Cc2nnc(Nc3nc4ccccc4o3)c3ccccc23)cc(C)n1 [SR-32065] | > 400 | 
24 | Cc1ccc2nc(Nc3nnc(Cc4ccncc4)c4ccccc34)oc2c1 [SR-32066] | 50 | 
25 | Fc1ccc2oc(Nc3nnc(Cc4ccncc4)c4ccccc34)nc2c1 [SR-32067] | 20 | 
26 | O=[N+]([O-])c1ccc2oc(Nc3nnc(Cc4ccncc4)c4ccccc34)nc2c1 [SR-32068] | 20 | 
27 | O=[N+]([O-])c1cccc2oc(Nc3nnc(Cc4ccncc4)c4ccccc34)nc12 [SR-32069] | 8 | 
28 | Fc1cccc2oc(Nc3nnc(Cc4ccncc4)c4ccccc34)nc12 [SR-32070] | 20 | 

Row | SMILES | EC50 (PK-1, 96 h) [nM] | EC50
29 | Fc1ccc2nc(Nc3nnc(Cc4ccncc4)c4ccccc34)oc2c1 [SR-32071] | 90 | 
30 | Cc1cccc2oc(Nc3nnc(Cc4ccncc4)c4ccccc34)nc12 [SR-32072] | 30 | 
31 | c1ccc2cc3oc(Nc4nnc(Cc5ccncc5)c5ccccc45)nc3cc2c1 [SR-32073] | 250 | 
32 | Fc1cccc2nc(Nc3nnc(Cc4ccncc4)c4ccccc34)oc12 [SR-32074] | 30 | 
33 | Cc1cccc2nc(Nc3nnc(Cc4ccncc4)c4ccccc34)oc12 [SR-32075] | > 400 | 
34 | COc1ccc2oc(Nc3nnc(Cc4ccncc4)c4ccccc34)nc2c1 [SR-32076] | 20 | 
35 | c1ccc2c(c1)ccc1oc(Nc3nnc(Cc4ccncc4)c4ccccc34)nc12 [SR-32077] | 135 | 
36 | CC(=O)c1cccc(Nc2nnc(Cc3ccnc(C)c3)c3ccccc23)c1 [SR-33871] | 70 | 
37 | Cc1cc(Cc2nnc(Nc3nc4ccccc4o3)c3ccccc23)ccn1 [SR-33872] | > 500 | 
38 | CC(=O)c1cccc(Nc2nnc(Cc3ccnc(C(F)(F)F)c3)c3ccccc23)c1 [SR-33873] | > 500 | 
39 | COc1cc(Cc2nnc(Nc3cccc(C(C)=O)c3)c3ccccc23)ccn1 [SR-33874] | > 500 | 
40 | COc1cc(Cc2nnc(NCc3cc4ccccc4o3)c3ccccc23)ccn1 [SR-33875] | > 500 | 
41 | CC(=O)c1cccc(Nc2nnc(Cc3ccncc3C(F)(F)F)c3ccccc23)c1 [SR-33876] | > 500 | 
42 | CC(=O)c1cccc(Nc2nnc(C(C)c3ccncc3)c3ccccc23)c1 (centres unmarked) [SR-34644] | 45 | 
43 | CC(c1ccncc1)c1nnc(NCc2cc3ccccc3o2)c2ccccc12 (centres unmarked) [SR-34645] | ~500 | 
44 | CC(=O)c1cccc(Nc2nnc(C(c3ccncc3)C(F)(F)F)c3ccccc23)c1 (centres unmarked) [SR-34646] | > 500 | 
45 | O=S(=O)(c1cccc(Nc2nnc(Cc3ccncc3)c3ccccc23)c1)N1CCOCC1 [SR-35424] | 9 | 
46 | O=S(=O)(c1ccc(Nc2nnc(Cc3ccncc3)c3ccccc23)cc1)N1CCOCC1 [SR-35425] | 5 | 
47 | c1cc(Nc2nnc(Cc3ccncc3)c3ccccc23)cc(C2COC2)c1 [SR-35426] | 10 | 
48 | O=S(=O)(c1cccc(Nc2nnc(Cc3ccncc3)c3ccccc23)c1)N1C2CCC1COC2 [SR-35427] | 7 | 
49 | O=S(=O)(c1cccc(Nc2nnc(Cc3ccncc3)c3ccccc23)c1)N1CC2CCC(C1)O2 [SR-35428] | 6 | 
50 | Cc1cc(C(C)c2nnc(NCC3CCOCC3)c3ccccc23)ccn1 (centres unmarked) [SR-35429, 4-(1-(2-methylpyridin-4-yl)ethyl)-N-((tetrahydro-2H-pyran-4-yl)methyl)phthalazin-1-amine] | 26 | 
51 | Cc1cc(C(C)c2nnc(NC3CCc4ccccc43)c3ccccc23)ccn1 (centres unmarked) [SR-35430] | > 900 | 
52 | Cc1cc(C(C)c2nnc(Nc3cccc(C4COC4)c3)c3ccccc23)ccn1 (centres unmarked) [SR-35431] | > 900 | 
53 | Cc1cc(C(C)c2nnc(NCC3COc4ccccc4C3)c3ccccc23)ccn1 (centres unmarked) [SR-35432] | > 900 | 
54 | Cc1cc(C(C)c2nnc(NCc3ccco3)c3ccccc23)ccn1 (centres unmarked) [SR-35433] | > 900 | 
55 | Clc1ccc(Nc2nnc(Cc3ccncc3)c3ccccc23)cc1 [vatalanib, reference compound] | 60 | 

Source: patent publication US20240174651A1, “COMPOUNDS AND USE THEREOF FOR TREATMENT OF NEURODEGENERATIVE, DEGENERATIVE AND METABOLIC DISORDERS” (THE SCRIPPS RESEARCH INSTITUTE, priority 2021, published 2024)
